Our source for the IC50 values is patent US9249145B2, “Heterocyclic derivatives of pyrazol-4-yl-pyrrolo[2,3-d]pyrimidines as janus kinase inhibitors” (Incyte Holdings Corporation, priority 2009, dated 2016).

The structures appear in SMILES notation.

One experiment concerns the target T1, Jak2 (a.a. 828-1132) (Homo sapiens, UniProt O60674).
T1 construct: Jak2 (a.a. 828-1132); His tag (N); made in house; host or cells: insect cells (baculovirus)
In words: In vitro JAK kinase assay (HTRF, phosphorylation of biotinylated peptide), JAK2. The settings on record: 1 mM ATP; Examples 92-162; read-out: JAK2 IC50 (nM) @ 1 mM ATP. It counts as biochemical. The essentials:
(§1)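 IC50 from HTRF detection (Eu-Py20 antibody, SA-APC, 40 min) after EDTA quench. Reactions ran 1 h at room temperature with 500 nM biotinylated peptide in Tris pH 7.8 buffer with NaCl, DTT, BSA; ATP 90 μM for JAK1, 30 μM for JAK2 (Km), or 1 mM. Enzymes: His-tagged catalytic domains from insect cells.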

The target in experiment [1] is T2, human JAK1 (a.a. 837-1142) (Homo sapiens, UniProt P23458).
T2 construct: The catalytic domains of human JAK1 (a.a. 837-1142); His tag (N); made in house; host or cells: insect cells (baculovirus)
T2 sequence (P23458 849-1154): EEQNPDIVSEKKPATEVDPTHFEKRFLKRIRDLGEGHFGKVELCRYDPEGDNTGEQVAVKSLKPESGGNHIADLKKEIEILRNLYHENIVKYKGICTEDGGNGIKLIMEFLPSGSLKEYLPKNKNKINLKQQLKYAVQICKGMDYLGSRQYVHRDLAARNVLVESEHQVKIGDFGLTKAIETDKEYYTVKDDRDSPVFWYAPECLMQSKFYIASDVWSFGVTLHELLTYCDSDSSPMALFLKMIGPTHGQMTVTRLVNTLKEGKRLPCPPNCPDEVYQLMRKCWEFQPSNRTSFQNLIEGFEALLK
Kind of experiment: In vitro JAK kinase assay (HTRF, phosphorylation of biotinylated peptide), JAK1. Format: biochemical. The settings on record: 1 mM ATP; Examples 92-162; read-out: JAK1 IC50 (nM) @ 1 mM ATP. Summed up: as §1

T1 sequence (O60674 828-1132): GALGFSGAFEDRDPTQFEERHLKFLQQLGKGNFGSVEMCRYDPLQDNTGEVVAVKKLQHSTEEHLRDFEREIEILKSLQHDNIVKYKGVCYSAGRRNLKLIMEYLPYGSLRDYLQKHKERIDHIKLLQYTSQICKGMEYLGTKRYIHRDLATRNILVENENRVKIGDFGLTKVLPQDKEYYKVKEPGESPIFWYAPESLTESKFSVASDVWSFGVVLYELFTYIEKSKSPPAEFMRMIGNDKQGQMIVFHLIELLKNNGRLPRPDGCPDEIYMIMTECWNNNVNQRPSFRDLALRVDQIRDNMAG

Regarding `N#CCC(CN1CCCN(C(=O)c2ccc(F)cc2)CC1)n1cc(-c2ncnc3[nH]ccc23)cn1` (stereo not shown) [Example 98, 4-[4-(4-fluorobenzoyl)-1,4-diazepan-1-yl]-3-[4-(7H-pyrrolo[2,3-d]pyrimidin-4-yl)-1H-pyrazol-1-yl]butanenitrile], the IC50 on Jak2 (a.a. 828-1132) is over 100 nM; in experiment [1], 20 to 50 nM.

`N#CCC(CN1CCCN(C(=O)c2ccc(F)cc2F)CC1)n1cc(-c2ncnc3[nH]ccc23)cn1` (stereo not shown) [Example 99, 4-[4-(2,4-difluorobenzoyl)-1,4-diazepan-1-yl]-3-[4-(7H-pyrrolo[2,3-d]pyrimidin-4-yl)-1H-pyrazol-1-yl]butanenitrile]: the values for the half-maximal inhibitory concentration (IC50) (at Jak2 (a.a. 828-1132); in experiment [1]) were 50 to 100 nM and 20 to 50 nM, respectively.

For the molecule `N#CCC(CN1CCCN(C(=O)c2ccc(Cl)cc2F)CC1)n1cc(-c2ncnc3[nH]ccc23)cn1` (stereo not shown) [Example 100, 4-[4-(4-chloro-2-fluorobenzoyl)-1,4-diazepan-1-yl]-3-[4-(7H-pyrrolo[2,3-d]pyrimidin-4-yl)-1H-pyrazol-1-yl]butanenitrile], the 50% inhibitory concentration (IC50) is 20 to 50 nM on Jak2 (a.a. 828-1132) and under 20 nM in experiment [1].

In the case of `N#CCC(CN1CCCN(C(=O)c2ccccc2F)CC1)n1cc(-c2ncnc3[nH]ccc23)cn1` (stereo not shown) [Example 101, 4-[4-(2-fluorobenzoyl)-1,4-diazepan-1-yl]-3-[4-(7H-pyrrolo[2,3-d]pyrimidin-4-yl)-1H-pyrazol-1-yl]butanenitrile], the IC50 on Jak2 (a.a. 828-1132) was over 100 nM; in experiment [1], 20 to 50 nM.

Regarding `N#CCC(CN1CCCN(S(=O)(=O)c2ccccc2C#N)CC1)n1cc(-c2ncnc3[nH]ccc23)cn1` (stereo not shown) [Example 102, 2-[(4-{3-cyano-2-[4-(7H-pyrrolo[2,3-d]pyrimidin-4-yl)-1H-pyrazol-1-yl]propyl}-1,4-diazepan-1-yl)sulfonyl]benzonitrile], the IC50 at Jak2 (a.a. 828-1132) lay in the range of 50 to 100 nM; in experiment [1], 20 to 50 nM.

Consider `N#CCC(CN1CCCN(C(=O)c2ccc(Cl)cc2Cl)CC1)n1cc(-c2ncnc3[nH]ccc23)cn1` (stereo not shown) [Example 103, 4-[4-(2,4-dichlorobenzoyl)-1,4-diazepan-1-yl]-3-[4-(7H-pyrrolo[2,3-d]pyrimidin-4-yl)-1H-pyrazol-1-yl]butanenitrile], for which the IC50 on Jak2 (a.a. 828-1132) was over 100 nM; in experiment [1], 20 to 50 nM.

Regarding `N#CCC(CN1CCCN(C(=O)c2ccc(N)cc2F)CC1)n1cc(-c2ncnc3[nH]ccc23)cn1` (stereo not shown) [Example 104, 4-[4-(4-amino-2-fluorobenzoyl)-1,4-diazepan-1-yl]-3-[4-(7H-pyrrolo[2,3-d]pyrimidin-4-yl)-1H-pyrazol-1-yl]butanenitrile], the half-inhibitory concentration (IC50) was over 100 nM at Jak2 (a.a. 828-1132) and 20 to 50 nM in experiment [1].

`Cc1cc(Cl)ccc1C(=O)N1CCCN(CC(CC#N)n2cc(-c3ncnc4[nH]ccc34)cn2)CC1` (stereo not shown) [Example 105, 4-[4-(4-chloro-2-methylbenzoyl)-1,4-diazepan-1-yl]-3-[4-(7H-pyrrolo[2,3-d]pyrimidin-4-yl)-1H-pyrazol-1-yl]butanenitrile]: the half-maximal inhibitory concentration (IC50) was over 100 nM on Jak2 (a.a. 828-1132) and 20 to 50 nM in experiment [1].

Regarding `COc1cc(Cl)ccc1C(=O)N1CCCN(CC(CC#N)n2cc(-c3ncnc4[nH]ccc34)cn2)CC1` (stereo not shown) [Example 106, 4-[4-(4-chloro-2-methoxybenzoyl)-1,4-diazepan-1-yl]-3-[4-(7H-pyrrolo[2,3-d]pyrimidin-4-yl)-1H-pyrazol-1-yl]butanenitrile], the half-inhibitory concentration (IC50) was 50 to 100 nM on Jak2 (a.a. 828-1132) and under 20 nM in experiment [1].

As for `N#CCC(CN1CCCN(C(=O)c2ccc(Cl)cc2)CC1)n1cc(-c2ncnc3[nH]ccc23)cn1` (stereo not shown) [Example 107, 4-[4-(4-chlorobenzoyl)-1,4-diazepan-1-yl]-3-[4-(7H-pyrrolo[2,3-d]pyrimidin-4-yl)-1H-pyrazol-1-yl]butanenitrile], the figures for the 50% inhibitory concentration (IC50) (on Jak2 (a.a. 828-1132); in experiment [1]) were over 100 nM and 20 to 50 nM, respectively.

Turning to `Cc1ccccc1S(=O)(=O)N1CCCN(CC(CC#N)n2cc(-c3ncnc4[nH]ccc34)cn2)CC1` (stereo not shown) [Example 108, 4-{4-[(2-methylphenyl)sulfonyl]-1,4-diazepan-1-yl}-3-[4-(7H-pyrrolo[2,3-d]pyrimidin-4-yl)-1H-pyrazol-1-yl]butanenitrile], the IC50 is 50 to 100 nM on Jak2 (a.a. 828-1132) and under 20 nM in experiment [1].
